According to PMC5799266, “ComX-Induced Exoproteases Degrade ComX in Bacillus subtilis PS-216” (Frontiers in Microbiology, 2018):
Where no end group is shown, it is not given here.

Columns and labels:
[1] = system: exoproteases in B. subtilis PS-216 floating biofilm spent media; test: Proteolytic activity of harvested floating biofilm spent media with EDTA or subtilisin added after harvest (casein-gelatin plates); format: biochemical, Bacillus subtilis; details: EDTA 1 mM added to wt floating biofilm spent medium, 16 h at 37°C
Protocol: To prepare casein gelatin agar plates 1% (w/v) casein sodium salt from bovine milk (Sigma–Aldrich, United States) and 1% (w/v) gelatin from porcine skin (Sigma–Aldrich, United States) were thoroughly dissolved in 0.02 M NaOH and the pH was equilibrated to 7 ± 0.2 as described by [Montville (1983)]. […] Finally, 1.5% (w/v) of agar was added to the casein gelatin medium. The casein gelatin medium was autoclaved at 110°C. 40 ml of the medium was poured into Petri dishes with 9 cm diameter. Wells (6 mm diameter) were cut into the casein gelatin agar using an agar punch cutter.
Proteolytic activity was determined in B. subtilis spent medium at different time points. The spent medium below the biofilm was centrifuged for 5 min at 8000 g to remove remaining planktonic cells and sterilized through filters with 0.2 μm pores. Spent medium was diluted in 10 mM sodium acetate buffer with 5 mM calcium acetate (pH 7.5). If EDTA was added to experimental samples, spent medium was diluted in PBS buffer (10 mM sodium phosphate dibasic, 1 mM potassium phosphate monobasic, 137 mM NaCl, and 2.7 mM KCl pH 7). The diluted spent medium (100 μl) was dispensed into the wells punched into the casein gelatin agar. The plates were incubated for 16 h at 37°C when the proteolytic zones were measured. […]

[2] = system: exoproteases in B. subtilis PS-216 floating biofilm spent media; test: ComX biological activity decay in floating biofilm spent media (biosensor BM1456, PsrfAA-yfp); format: in vitro ADME, Bacillus subtilis; details: for ComX biological activity decay: T0 vs 24 h at 37°C, three biological replicates
Protocol: (§1) The ComX biological activity was quantified in spent media of various B. subtilis strains harvested after 36 and 48 h of static growth, using biosensor strains: B. subtilis BM1456 and BM1400. […] The BM1400 strain only served to determine background fluorescence, since it carries no fluorescent marker. […] The BM1456 biosenor responds to ComX in the spent medium by inducing the PsrfAA-yfp reporter ([Oslizlo et al., 2014]). Since the induction of PsrfAA is proportional to the quantity of ComX ([Ansaldi et al., 2002]) we used this assay to estimate the quantity of biologically active ComX in the spent media of various pellicles.
(§2) Both biosensor strains were grown in 5 ml of CM medium supplemented with 1% (v/v) of filtered spent media of selected strains for 6 h at 37°C with shaking (200 rpm). After 6 h of incubation 200 μl aliquots were dispensed in a sterile 96-well black transparent bottom microtiter plate. The PsrfAA-yfp expression was quantified by YFP (yellow fluorescent protein) fluorescence intensity. YFP was excited at 510 nm and emissions were measured at 530 nm. The gain was set to 100. Each PsrfAA-yfp reading was normalized to OD650. The normalized autofluorescence background of BM1400 grown in the same experimental conditions was subtracted. Additionally, we subtracted the PsrfAA-yfp expression of cells exposed to ΔcomQ spent medium (lacks ComX), to account for ComX independent YFP expression.
ComX biological activity was determined in the spent media immediately after harvest (T0) and after a 24 h (T24) incubation at 37°C. We reasoned that if exoproteases in the spent medium degrade ComX the ComX biological activity at T0 will be greater than at T24. To calculate the ComX biological activity decay we used the following equation:
ComXbiologicalactivitydecay[%]= ComXbiologicalactivity(To)−ComXbiologicalactivity(T24)/ComXbiologicalactivity(To)*100
The same approach was used to determine ComX biological activity decay in the spent media supplemented with subtilisin (0.1 mg/ml) or metalloprotease inhibitor EDTA (1 mM) after harvesting or to estimate the effect of commercially available subtilisin on ComX heterologously produced in E. coli ED367.

[3] = system: exoprotease production of B. subtilis PS-216 ΔcomQ floating biofilms; test: Proteolytic activity in spent media of floating biofilms grown with ComX (casein-gelatin plates); format: cell-based, Bacillus subtilis; details: ΔcomQ mutant, 24 h floating biofilm in MSgg + 20% (v/v) ED367 M9 spent medium with ComX, 12-well plates, 37°C; casein-gelatin plate zones; three biological replicates
Protocol: (§3) To harvest pellicle spent media 1% (v/v) of B. subtilis spores were inoculated in 4 ml of MSgg medium ([Branda et al., 2001]), in some cases complemented with 20% (v/v) spent M9 minimal medium and incubated in sterile 12-well microtiter plates in static conditions at 37°C.
To prepare casein gelatin agar plates 1% (w/v) casein sodium salt from bovine milk (Sigma–Aldrich, United States) and 1% (w/v) gelatin from porcine skin (Sigma–Aldrich, United States) were thoroughly dissolved in 0.02 M NaOH and the pH was equilibrated to 7 ± 0.2 as described by [Montville (1983)]. Wherever, the proteolytic inhibition by ethylenediaminetetraacetic acid (EDTA) was tested, EDTA was added to the casein gelatin medium in 1 mM final concentration. Finally, 1.5% (w/v) of agar was added to the casein gelatin medium. The casein gelatin medium was autoclaved at 110°C. 40 ml of the medium was poured into Petri dishes with 9 cm diameter. Wells (6 mm diameter) were cut into the casein gelatin agar using an agar punch cutter.
Proteolytic activity was determined in B. subtilis spent medium at different time points. The spent medium below the biofilm was centrifuged for 5 min at 8000 g to remove remaining planktonic cells and sterilized through filters with 0.2 μm pores. […] The plates were incubated for 16 h at 37°C when the proteolytic zones were measured. […]

[4] = system: B. subtilis PS-216 ΔcomQ floating biofilm; test: Floating biofilm morphology after addition of ComX; format: cell-based, Bacillus subtilis; details: ΔcomQ mutant at 24 h, MSgg + 20% (v/v) ED367 M9 spent medium with ComX
Protocol: as §3

subtilisin = test: ComX biological activity decay in E. coli ED367 M9 spent medium with subtilisin (biosensor BM1456); format: in vitro ADME; details: E. coli ED367 M9 spent medium with heterologous ComX, subtilisin 0.1 mg/ml, 24 h at 37°C, vs subtilisin untreated control, three biological replicates
Protocol: as §1
as §2, with “Additionally, we subtracted the PsrfAA-yfp expression of cells exposed to ΔcomQ spent medium (lacks ComX), to account for ComX independent YFP expression.” left out
ComX biological activity was determined in the spent media immediately after harvest (T0) and after a 24 h (T24) incubation at 37°C. […]

[5] = system: PaprE-gfp expression in B. subtilis PS-216 mutants; test: PaprE-gfp expression during formation of floating biofilm, complementation with ComX; format: cell-based, Bacillus subtilis
Protocol: To measure gene expression in floating biofilms (pellicles) a spore suspension 1% (v/v) was inoculated into the liquid MSgg medium. In some experiments the MSgg medium was supplemented with 20% (v/v) of the spent medium containing ComX, which was heterologously produced by E. coli ED367 ([Ansaldi et al., 2002]). The spent M9 medium of E. coli ED367 that was not induced by IPTG was used as a negative control.
Briefly, 200 μl aliquots of inoculated MSgg medium, sometimes supplemented with M9 spent medium were dispensed in a sterile 96-well black transparent bottom microtiter plate in four technical replicates. The lid was sealed with micropore tape and the space between wells was filled with sterile distilled water to minimize the effect of medium evaporation. The microtiter plate was incubated in the Cytation 3 imaging reader (BioTek, United States) at 37°C without shaking. Optical density at 650 nm and fluorescence intensity were measured in half hour intervals for up to 60 h. Fluorescence intensity of GFP (green fluorescent protein) was used to monitor PaprE-gfp expression with excitation at 480 nm and emission at 510 nm. The gain was set on 50. In a parallel experimental setup the same strains without the fluorescent marker were always cultured. To calculate the final expression the autofluorescence of unmarked strains was deducted from the fluorescence of the marked strains. Fluorescence intensity was normalized per OD650 of fluorescently labeled strains at each time point.

| Compound | effect on proteolytic activity of spent medium [1] | ComX biological activity decay, change with subtilisin ([2]; comP::cat or degQ::tet spent media + subtilisin 0.1 mg/ml added after harvest vs without, 24 h at 37°C, biosensor BM1456) | ComX biological activity decay ([2]; spent media of mutant strains (degQ::tet, comP::cat; low proteolytic activity) harvested at 36 and 48 h, biosensor BM1456) | ComX biological activity decay ([2]; spent media of wt PS-216 floating biofilms harvested at 36 and 48 h (MSgg), biosensor BM1456 PsrfAA-yfp fluorescence) | ComX biological activity decay, change with EDTA ([2]; wt spent medium + EDTA 1 mM added after harvest vs without, 24 h at 37°C, biosensor BM1456) | complementation of spent media proteolytic activity [3] | floating biofilm morphology [4] | decay of the ComX biological activity, change with subtilisin (subtilisin) | complementation of PaprE-gfp expression ([5]; degQ::tet mutant of PS-216, MSgg + 20% (v/v) ED367 M9 spent medium with ComX) | complementation of PaprE-gfp expression ([5]; ΔcomQ degQ::tet double mutant of PS-216, MSgg + 20% (v/v) ED367 M9 spent medium with ComX) | complementation of PaprE-gfp expression ([5]; ΔcomQ mutant of PS-216, floating biofilm in MSgg + 20% (v/v) M9 spent medium of IPTG-induced E. coli ED367 (heterologous ComX), 37°C, control non-induced spent medium, GFP fluorescence per OD650, three biological replicates) |
| --- | --- | --- | --- | --- | --- | --- | --- | --- | --- | --- | --- |
| O=C(O)CN(CCN(CC(=O)O)CC(=O)O)CC(=O)O [EDTA, ethylenediaminetetraacetic acid] | decreases |  |  |  |  |  |  |  |  |  |  |
| ComX: auto-inducing signaling peptide of B. subtilis ComQXPA system, modified by isoprenyl transferase ComQ; native in spent media or heterologously produced by E. coli ED367 (ADPITRQWGD; also: isoprenylated by ComQ, site not given here; UniProt P45453 46-55, looked up) |  | increased | low | high | decreases | complemented | restores the ΔcomQ mutant floating biofilm morphology to the wt morphology | increases | does not complement | does not complement | complementation was partial |
